Data on 24 molecules can be found in patent US12590096B2, “Imidazo[2,1-f][1,2,4]triazin-4-amine as TLR8 agonists” (BeOne Medicines | GmbH, priority 2019, dated 2026).

One test has as its target T1, human TLR 8 protein in HEK-blue hTLR 8 tool cell line (Homo sapiens, UniProt Q9NR97).
T1 construct: expressed in transfected cells; host or cells: HEK293 (HEK-Blue hTLR8)
T1 sequence (Q9NR97 27-1041): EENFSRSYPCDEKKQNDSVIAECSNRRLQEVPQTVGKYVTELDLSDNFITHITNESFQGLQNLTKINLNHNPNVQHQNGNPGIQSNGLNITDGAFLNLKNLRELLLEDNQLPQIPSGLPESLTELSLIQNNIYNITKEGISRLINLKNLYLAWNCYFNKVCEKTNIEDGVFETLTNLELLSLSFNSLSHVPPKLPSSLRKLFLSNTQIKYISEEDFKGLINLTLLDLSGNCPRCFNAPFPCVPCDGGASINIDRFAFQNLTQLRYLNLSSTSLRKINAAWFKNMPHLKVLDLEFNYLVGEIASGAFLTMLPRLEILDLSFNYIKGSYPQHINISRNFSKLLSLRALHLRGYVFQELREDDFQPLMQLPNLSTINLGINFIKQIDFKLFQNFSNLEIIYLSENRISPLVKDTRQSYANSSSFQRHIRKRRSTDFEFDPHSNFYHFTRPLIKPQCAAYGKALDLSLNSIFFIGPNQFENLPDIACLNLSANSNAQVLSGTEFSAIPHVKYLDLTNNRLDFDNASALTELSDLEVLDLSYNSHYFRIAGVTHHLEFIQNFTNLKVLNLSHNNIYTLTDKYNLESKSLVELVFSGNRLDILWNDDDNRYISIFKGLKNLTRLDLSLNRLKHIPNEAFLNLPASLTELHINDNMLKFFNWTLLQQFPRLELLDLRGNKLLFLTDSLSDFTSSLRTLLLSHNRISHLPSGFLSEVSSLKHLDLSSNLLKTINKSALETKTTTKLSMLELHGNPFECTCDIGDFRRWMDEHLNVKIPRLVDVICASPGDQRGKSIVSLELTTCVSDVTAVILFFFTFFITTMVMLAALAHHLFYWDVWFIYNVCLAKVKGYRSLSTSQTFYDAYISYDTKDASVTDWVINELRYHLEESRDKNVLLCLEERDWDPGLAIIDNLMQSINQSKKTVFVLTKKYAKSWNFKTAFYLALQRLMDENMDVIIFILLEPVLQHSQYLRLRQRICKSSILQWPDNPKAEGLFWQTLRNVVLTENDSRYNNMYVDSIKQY
As to the kind of experiment: TLR8 stimulation determined by HEK-Blue Detection (NF-κB/SEAP reporter). It is filed as cell-based. The note with it: HEK-Blue hTLR8 cells, 16 h incubation, relative to maximum activation by Resiquimod or motolimod; read-out: EC50 (nmol). The source says:
TLR8 Stimulation Determined by HEK-Blue Detection
This assay was designed to study the stimulation of human TLR 8 protein in HEK-blue hTLR 8 tool cell line by monitoring the activation of NF-κB. HEK-blue hTLR8 cells were obtained by co-transfection of hTLR8 gene and optimized secretory embryonic alkaline phosphatase (SEAP) reporter gene into HEK293 cells. SEAP reporter gene was put under the control of […] minimal promoter fused with five NF-κB and AP-1-binding sites. NF-κB and AP-1 were activated by stimulation with TLR 8 ligand, thus inducing the expression of SEAP. The level of SEAP can be easily determined by HEK-Blue Detection (a cell culture medium that allows real-time detection of SEAP). HEK-Blue Detection comprises all nutrients needed for cell growth and specific SEAP color substrates. The hydrolysis of substrate by SEAP produces purple/blue color which can be measured by spectrophotometer.
When growing to 50-80% confluence, HEK-Blue hTLR7/8 cells were plated into 96-well plates (costar 3599) at a density of 40,000 cells/well. Then, the compound serially diluted at 10 points with a final concentration ranging from 1 nM to 10 μm in 0.1% DMSO/HEK-Blue Detection was added. The plates were then incubated in 5% CO2 at 37° C. for 16 h. Optical density at 620-655 nm was read on BMG PHERAstar FSX instrument. The EC50 of each compound was determined by calculating the maximum activation percentage identified using Resiquimod or motolimod.
The EC50 of the tested compound of the present invention is as follows.
In general, EC50 refers to the concentration needed to bring the measured effect to its halfway point. In the case of `CCC[C@H](C)Oc1nc(N)c2ncc(CC3CCNCC3)n2n1` [Compound B6, (S)-2-(pent-2-yloxy)-7-(piperidin-4-ylmethyl)imidazo[2,1-f][1,2,4]triazin-4-amine], the concentration for a half-maximal effect (EC50) is 0.0082 µM.
The same measure, in the same setting: the same measure for `CCC[C@H](C)Oc1nc(N)c2ncc(C=C3CCNCC3)n2n1` [Compound B35, (S)-2-(pent-2-yloxy)-7-(piperidin-4-ylidenemethyl)imidazo[2,1-f][1,2,4]triazin-4-amine]: 0.921 µM; for `CCCC(C)Oc1nc(N)c2ncc(CC3CCOCC3)n2n1` (centres unmarked) [Compound B36, 2-(pent-2-yloxy)-7-((tetrahydro-2H-pyran-4-yl)methyl)imidazo[2,1-f][1,2,4]triazin-4-amine]: greater than 10 µM; for `CCC[C@H](C)Oc1nc(N)c2ncc(NC3CCNCC3)n2n1` [Compound B37, (S)-2-(pent-2-yloxy)-N7-(piperidin-4-yl)imidazo[2,1-f][1,2,4]triazin-4,7-diamine]: greater than 10 µM.
The same measure, in the same setting: the same measure for `CCC[C@H](C)Oc1nc(N)c2ncc(CC3CNC3)n2n1` [Compound B39, (S)-7-(azetidin-3-ylmethyl)-2-(pent-2-yloxy)imidazo[2,1-f][1,2,4]triazin-4-amine]: 0.127 µM.
Regarding `CCC[C@H](C)Oc1nc(N)c2ncc(CC34CC(N)(C3)C4)n2n1` [Compound B40, (S)-7-((3-aminobicyclo[1.1.1]pent-1-yl)methyl)-2-(pent-2-yloxy)imidazo[2,1-f][1,2,4]triazin-4-amine], the concentration giving a half-maximal response (EC50) turned out to be 1.01 µM.
Consider `Cc1cc(COc2nc(N)c3ncc(CC4CCNCC4)n3n2)no1` [Compound B41, 2-((5-methylisoxazol-3-yl)methoxy)-7-(piperidin-4-ylmethyl)imidazo[2,1-f][1,2,4]triazin-4-amine], for which the EC50 is greater than 10 µM.
Take `CCC[C@H](C)Oc1nc(N)c2ncc(CC3CCCN3)n2n1` (stereo partly drawn) [Compound B42, 2-(((S)-pent-2-yl)oxy)-7-(pyrrolidin-2-ylmethyl)imidazo[2,1-f][1,2,4]triazin-4-amine]: the EC50 turned out to be 0.036 µM.
On the same count and under the same terms, the same measure for `CCC[C@H](C)Oc1nc(N)c2ncc(CC3CCC4(CC3)CNC4)n2n1` [Compound B43, (S)-7-((2-azaspiro[3.5]non-7-yl)methyl)-2-(pent-2-yloxy)imidazo[2,1-f][1,2,4]triazin-4-amine]: 0.024 µM.
Regarding `Cc1cnc(COc2nc(N)c3ncc(CC4CCNCC4)n3n2)s1` [Compound B44, 2-((5-methylthiazol-2-yl)methoxy)-7-(piperidin-4-ylmethyl)imidazo[2,1-f][1,2,4]triazin-4-amine], the EC50 was greater than 10 µM.
Still for that read-out and setting: the same measure for `CCCC(Cc1ccccc1)Oc1nc(N)c2ncc(CC3CCNCC3)n2n1` (centres unmarked) [Compound B45, 2-((1-phenylpent-2-yl)oxy)-7-(piperidin-4-ylmethyl)imidazo[2,1-f][1,2,4]triazin-4-amine]: 0.531 µM.
Still for that read-out and setting: the same measure for `Nc1nc(OCC2CCOC2)nn2c(CC3CCNCC3)cnc12` (centres unmarked) [Compound B46, 7-(piperidin-4-ylmethyl)-2-((tetrahydrofuran-3-yl)methoxy)imidazo[2,1-f][1,2,4]triazin-4-amine]: greater than 10 µM; for `CCCC(CCC)Oc1nc(N)c2ncc(CC3CCNCC3)n2n1` [Compound B47, 2-(hept-4-yloxy)-7-(piperidin-4-ylmethyl)imidazo[2,1-f][1,2,4]triazin-4-amine]: 0.084 µM; for `CCC(CC)Oc1nc(N)c2ncc(CC3CCNCC3)n2n1` [Compound B48, 2-(pent-3-yloxy)-7-(piperidin-4-ylmethyl)imidazo[2,1-f][1,2,4]triazin-4-amine]: 0.0147 µM.
On the same count and under the same terms, the same measure for `CCC[C@H](CC)Oc1nc(N)c2ncc(CC3CCNCC3)n2n1` [Compound B49, (S)-2-(hex-3-yloxy)-7-(piperidin-4-ylmethyl)imidazo[2,1-f][1,2,4]triazin-4-amine]: 0.0075 µM; for `CCC[C@H](C)Oc1nc(N)c2ncc(CC3CC4(CCNCC4)C3)n2n1` [Compound B50, (S)-7-((7-azaspiro[3.5]non-2-yl)methyl)-2-(pent-2-yloxy)imidazo[2,1-f][1,2,4]triazin-4-amine]: 0.209 µM.
With `CCC[C@H](C)Oc1nc(N)c2ncc(CC3CCCCN3)n2n1` (stereo partly drawn) [Compound B51, 2-(((S)-pent-2-yl)oxy)-7-(piperidin-2-ylmethyl)imidazo[2,1-f][1,2,4]triazin-4-amine], the half-maximal effective concentration (EC50) was 0.41 µM.
Regarding `CCC[C@H](C)Oc1nc(N)c2ncc(CC3CCNCC3(C)C)n2n1` (stereo partly drawn) [Compound B53, 7-((3,3-dimethylpiperidin-4-yl)methyl)-2-(((S)-pent-2-yl)oxy)imidazol[2,1-f][1,2,4]triazin-4-amine], the EC50 is 3.86 µM.
Consider `CCC[C@H](C)Oc1nc(N)c2ncc(CC3CCN(CC(C)NC)CC3)n2n1` (stereo partly drawn) [Compound B54, 7-((1-(2-(methylamino)propyl)piperidin-4-yl)methyl)-2-(((S)-pent-2-yl)oxy)imidazo[2,1-f][1,2,4]triazin-4-amine], for which the half-maximal effective concentration (EC50) was 0.022 µM.
The same measure, in the same setting: the same measure for `CCC[C@H](C)Oc1nc(N)c2ncc(CC3CC4CCC(C3)N4)n2n1` (stereo partly drawn) [Compound B56, 7-((8-azabicyclo[3.2.1]oct-3-yl)methyl)-2-(((S)-pent-2-yl)oxy)imidazo[2,1-f][1,2,4]triazin-4-amine]: 1.92 µM.
As to `CCC[C@H](C)Oc1nc(N)c2ncc(CC3CCNCC3C)n2n1` (stereo partly drawn) [Compound B60, 7-((3-methylpiperidin-4-yl)methyl)-2-(((S)-pent-2-yl)oxy)imidazo[2,1-f][1,2,4]triazin-4-amine], the EC50 was determined as 0.917 µM.

The test is the same for the next values; noted with them: HEK-Blue hTLR8 cells, 16 h incubation; unit μM; read-out: EC50.
With `CCC[C@H](C)Oc1nc(N)c2ncc(/C=C3/CCNCC3(C)C)n2n1` [Compound B52, (S)-7-((3,3-dimethylpiperidin-4-ylidene)methyl)-2-(pent-2-yloxy)imidazo[2,1-f][1,2,4]triazin-4-amine], the concentration giving a half-maximal response (EC50) is greater than 10 µM.
On the same count and under the same terms, the same measure for `CCC[C@H](C)Oc1nc(N)c2ncc(C=C3CC4CCC(C3)N4)n2n1` [Compound B55, 7-((8-azabicyclo[3.2.1]oct-3-ylene)methyl)-2-(((S)-pent-2-yl)oxy)imidazo[2,1-f][1,2,4]triazin-4-amine]: greater than 10 µM; for `CCC[C@H](C)Oc1nc(N)c2ncc(CC3CCNCC3(F)F)n2n1` (stereo partly drawn) [Compound B57, 7-((3,3-difluorpiperidin-4-yl)methyl)-2-(((S)-pent-2-yl)oxy)imidazo[2,1-f][1,2,4]triazin-4-amine]: greater than 10 µM.

The subject of a further test is PBMC (peripheral blood monocyte). The test is described as follows: PBMC determination: cytokines in culture supernatant measured by HTRF. The note with it: human PBMC, 24 h, Human IL6 kit (HTRF); read-out: IL6 (EC50). The class given is cell-based. The method, then:
Determination of PBMC (Peripheral Blood Monocyte) Cell Preparation, Separation and Culture
Human whole blood was collected from healthy volunteers using BD Vacutainer® Lithium Heparin Tubes. PBMCs were prepared using Ficoll separation medium (GE Healthcare) by SopMate™ (STEMCELL). The cell survival rate was over 85% as monitored by Countstar. PBMCs were cultured in RPMI 1640 (Gibco) 10% (v/v) FBS (Gibco), 1×MEM NEAA (Gibco), 1× GlutaMAX (Gibco), 1 mM sodium pyruvate (Gibco), 50 uM 2-mercaptoethanol (sigma), and 100 U/ml penicillin-streptomycin (Thermo fisher Scientific).
PBMCs were plated into 96-well plates (costar 3894) with a density of 2×10^5 cells/well. Then, TLR7/8 compound was added, and serial dilution was carried out at ten points. The final concentration in 0.1% DMSO/RPMI 1640 ranged from 1 nM to 10 μM. Then, the plates were incubated in 5% CO2 at 37° C. for 24 h.
HTRF (Homogeneous Time-Resolved Fluorescence)
After the specified time point, according to the manufacturers recommendations, the cytokines in the cell culture supernatant were measured by Human IL6 kit (cisbio) and Human TNF alpha kit (cisbio). The EC50 of each compound was determined by calculating the maximum activation percentage identified using Resiquimod or Motolimod.
In general terms: In TR-FRET formats the signal depends on donor and acceptor labels being close together.
In the case of `CCC[C@H](C)Oc1nc(N)c2ncc(CC3CCNCC3)n2n1` [Compound B6, (S)-2-(pent-2-yloxy)-7-(piperidin-4-ylmethyl)imidazo[2,1-f][1,2,4]triazin-4-amine], the EC50 worked out at 162 nM.

The test is the same for the next values; noted with them: human PBMC, 24 h, Human TNF alpha kit (HTRF); read-out: TNF-alpha (EC50).
For `CCC[C@H](C)Oc1nc(N)c2ncc(CC3CCNCC3)n2n1` [Compound B6, (S)-2-(pent-2-yloxy)-7-(piperidin-4-ylmethyl)imidazo[2,1-f][1,2,4]triazin-4-amine], the EC50 came to 115 nM.
